Drawing on ChEMBL document CHEMBL1123163, “Absolute configuration of (-)-5-benzoyl-1,2-dihydro-3H-pyrrolo[1,2-alpha]pyrrole-1-carboxylic acid, the active enantiomer of ketorolac” (1986), this text covers ED50 for 3 compounds.

Each structure is given as a SMILES string. Bounds are passed on as bounds.

The subject of one assay is Mus musculus. Kind of assay: Analgesic activity using mouse phenylquinone writhing assay along with 70 mg/kg of aspirin. It is filed as functional. Background: Writhing tests count abdominal constrictions after an irritant is injected.
For a further assay, the system named is Rattus norvegicus. In words: Antiinflammatory activity using carrageenan rat paw edema assay along with 15 mg/kg of phenylbutazone. The format is functional.

Consider `O=C(c1ccccc1)C1CCC2[C@@H](C(=O)O)CCN12` (stereo partly specified), for which the ED50 (in general, the midpoint of the dose-response relation) with Mus musculus was 699 mg/kg; in the assay on Rattus norvegicus, 170 mg/kg.
For `O=C(c1ccccc1)C1CCC2[C@H](C(=O)O)CCN12` (stereo partly specified) the same measures were less than 3 mg/kg and 3 mg/kg.
The matching figures for `O=C(O)C1CCN2C(C(=O)c3ccccc3)CCC12` (racemic): 399 mg/kg and 96 mg/kg.
